Key:
[1] = molecular target: T1, RORγ (Homo sapiens, UniProt P51449); experiment: RORγ reporter gene assay in doxycycline-inducible RORγ CHO Tet-on cells transfected with 11β-HSD1/H6PDH, 11β-HSD2 or pcDNA3; type: cell-based; parameters: only weakly by 7k27OHC when full-length receptors are considered [([31]), present study]; expressed in transfected cells
T1 sequence (P51449 1-518): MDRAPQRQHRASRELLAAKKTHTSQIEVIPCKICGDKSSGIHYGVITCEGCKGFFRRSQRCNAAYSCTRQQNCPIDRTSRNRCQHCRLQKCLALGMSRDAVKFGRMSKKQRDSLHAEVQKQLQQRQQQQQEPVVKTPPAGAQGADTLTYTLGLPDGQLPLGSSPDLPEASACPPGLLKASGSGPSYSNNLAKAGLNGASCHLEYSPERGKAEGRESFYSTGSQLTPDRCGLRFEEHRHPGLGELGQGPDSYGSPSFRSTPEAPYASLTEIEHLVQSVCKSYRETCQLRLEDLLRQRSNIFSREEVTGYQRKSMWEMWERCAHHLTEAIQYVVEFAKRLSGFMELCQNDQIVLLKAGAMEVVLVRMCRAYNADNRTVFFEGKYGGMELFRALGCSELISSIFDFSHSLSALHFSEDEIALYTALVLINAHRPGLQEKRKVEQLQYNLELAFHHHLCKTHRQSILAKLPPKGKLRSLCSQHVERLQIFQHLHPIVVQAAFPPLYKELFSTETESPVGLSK
Experimental: Doxycycline-inducible RORγ CHO Tet-on cells were transfected with 11β-HSD1/H6PDH, 11β-HSD2. or pcDNA3 using the electroporation method according to the manufacturer’s protocol (Neon™ transfection system; Invitrogen). Briefly, the cells […]). Three electric pulses of 1,620 V and 10 ms were delivered to the cells using a 100 μl gold tip. Then, the cells (20,000 cells per well) were seeded in 96-well plates using culture medium without antibiotics and incubated for 16 h. The medium was replaced with medium containing charcoal-dextran stripped FBS for 1.5 h before treating the cells with different concentrations of oxysterols. After 6 h, 1.25 μM of the inverse agonist SR2211 was added to the treatment for another 2 h. To induce ROR expression, the cells were additionally subjected to 1 μM doxycycline for a further 16 h. The cells were lysed in 20 μl Tropix lysis solution supplemented with 0.5 mM dithiothreitol. RORγ-mediated activation of the luciferase reporter was measured in 10 μl lysate by adding 100 μl of D-luciferin-firefly substrate solution. Data (mean ± SD) were obtained from at least three independent experiments.

[2] = molecular target: T2, mineralocorticoid receptor (MR) (Homo sapiens, UniProt P80365); experiment: Mineralocorticoid receptor reporter gene assay in HEK-293 cells stably expressing 11β-HSD2; type: cell-based; conditions: without cortisol, data not shown
T2 sequence (P80365 1-405): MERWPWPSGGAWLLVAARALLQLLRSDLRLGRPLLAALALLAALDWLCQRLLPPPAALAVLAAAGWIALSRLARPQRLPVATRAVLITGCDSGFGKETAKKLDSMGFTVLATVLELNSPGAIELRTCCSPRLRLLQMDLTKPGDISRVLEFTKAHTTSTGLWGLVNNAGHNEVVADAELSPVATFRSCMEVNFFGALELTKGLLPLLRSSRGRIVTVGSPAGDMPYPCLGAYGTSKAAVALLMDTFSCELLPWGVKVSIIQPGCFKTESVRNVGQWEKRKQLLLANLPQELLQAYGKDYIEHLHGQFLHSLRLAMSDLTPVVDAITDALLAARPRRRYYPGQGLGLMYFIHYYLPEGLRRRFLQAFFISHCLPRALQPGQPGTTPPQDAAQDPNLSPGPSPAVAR
T2 sequence (P08235 1-984 partner): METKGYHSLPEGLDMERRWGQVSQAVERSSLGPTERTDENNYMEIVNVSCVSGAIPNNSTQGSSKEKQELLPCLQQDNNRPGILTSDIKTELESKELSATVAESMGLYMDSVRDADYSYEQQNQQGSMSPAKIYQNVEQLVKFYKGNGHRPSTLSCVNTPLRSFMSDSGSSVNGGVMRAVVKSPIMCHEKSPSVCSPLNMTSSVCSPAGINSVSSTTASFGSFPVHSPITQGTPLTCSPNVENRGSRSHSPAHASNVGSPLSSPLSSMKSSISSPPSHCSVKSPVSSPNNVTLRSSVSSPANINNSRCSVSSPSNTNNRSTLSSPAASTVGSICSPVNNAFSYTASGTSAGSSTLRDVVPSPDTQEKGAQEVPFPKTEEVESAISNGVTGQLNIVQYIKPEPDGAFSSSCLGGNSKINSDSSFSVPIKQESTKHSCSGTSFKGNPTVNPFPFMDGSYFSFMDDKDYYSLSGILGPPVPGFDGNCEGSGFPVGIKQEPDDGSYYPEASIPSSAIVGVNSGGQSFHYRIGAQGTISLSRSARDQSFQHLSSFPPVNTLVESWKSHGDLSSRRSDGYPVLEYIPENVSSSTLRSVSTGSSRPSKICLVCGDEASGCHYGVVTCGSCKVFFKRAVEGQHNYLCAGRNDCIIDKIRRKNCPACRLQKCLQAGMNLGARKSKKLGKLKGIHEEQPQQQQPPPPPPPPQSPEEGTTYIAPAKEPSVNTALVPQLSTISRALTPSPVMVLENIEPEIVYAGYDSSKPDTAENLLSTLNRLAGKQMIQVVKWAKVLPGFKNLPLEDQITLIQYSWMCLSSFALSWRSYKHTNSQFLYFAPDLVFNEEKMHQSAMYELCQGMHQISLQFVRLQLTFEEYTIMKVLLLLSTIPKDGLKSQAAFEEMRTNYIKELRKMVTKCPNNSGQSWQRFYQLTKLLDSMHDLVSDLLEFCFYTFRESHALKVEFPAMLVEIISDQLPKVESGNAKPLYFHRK
Experimental: Then, the cells were transiently transfected with the mineralocorticoid receptor (MR) (300 ng/well), a [NT] luciferase reporter (450 ng/well), and a pCMV-lacZ β-galactosidase transfection control (25 ng/well) using the calcium phosphate precipitation method. At 6 h post-transfection, the cells were washed with DMEM and incubated for another 18 h before replacing the medium with cDMEM. The cells were cultured for another 2 h at 37°C. […] The cells were lysed with Tropix lysis solution (Applied Biosystems, Foster City, CA) containing 0.5 mM of dithiothreitol and frozen at -80°C for at least 20 min.

[3] = 11β-HSD2 expressing RORγ Tet-on cells

| SMILES | Effect on RORγ reporter (in words) ([1]; only control plasmid expressed, data not shown) | Reversal of the inhibitory effect of SR2211 on RORγ reporter (in words) [1, 3] | Stimulation of MR activity by the substance itself (in words) [2] | Reversal of the inhibitory effect of SR2211 on RORγ reporter (in words) ([1]; coexpression of RORγ with 11β-HSD1) |
| --- | --- | --- | --- | --- |
| C[C@@H](CO)CCC[C@@H](C)[C@H]1CC[C@H]2[C@@H]3[C@H](O)C=C4C[C@@H](O)CC[C@]4(C)[C@H]3CC[C@]12C [7α27OHC] | same weak concentration-dependent effect as 7k27OHC | – | – | – |
| CC(CO)CCC[C@@H](C)[C@H]1CC[C@H]2[C@@H]3[C@@H](O)C=C4C[C@@H](O)CC[C@]4(C)[C@H]3CC[C@]12C (stereo partly drawn) [7β27OHC, 7β,27-dihydroxycholesterol] | – | could not restore RORγ activity | neither 7β27OHC nor 7k27OHC was able to stimulate MR activity by itself | – |
| CC(CO)CCC[C@@H](C)[C@H]1CC[C@H]2[C@@H]3C(=O)C=C4C[C@@H](O)CC[C@]4(C)[C@H]3CC[C@]12C (stereo partly drawn) [7k27OHC, 7-keto,27-hydroxycholesterol] | – | weak response | neither 7β27OHC nor 7k27OHC was able to stimulate MR activity by itself | capable of reversing the inhibitory effect of the RORγ antagonist, SR2211, in the same manner as 7β27OHC |

Reference: PMC6718442, “11β-Hydroxysteroid dehydrogenases control access of 7β,27-dihydroxycholesterol to retinoid-related orphan receptor γ” (Journal of Lipid Research, 2019)
